Common to all, as to experiment: inhibition of tumour cell growth, NCI panel, 48 h
The subject of experiment [1] is 786-0.
Experiment [2] deals with BT-549.
Experiment [3] relates to COLO 205.
Experiment [4] deals with EKVX.
Experiment [5] relates to HCC 2998.
In experiment [6] the test system is HL-60.
For experiment [7], the system named is HOP-62.
The test system of experiment [8] is HOP-92.
In experiment [9] the test system is HT-29.
For experiment [10], the system named is K562.
Experiment [11] relates to KM12.
The subject of experiment [12] is LOX IMVI.
Experiment [13] deals with MOLT-4.
Experiment [14] relates to NCI-H460.
Experiment [15] deals with NCI-H522.
For experiment [16], the system named is NCI/ADR-RES.
Experiment [17] relates to OVCAR-4.
Experiment [18] concerns SF-539.
The subject of experiment [19] is SK-MEL-2.
Experiment [20] has as its system UO-31.

Five compounds from ChEMBL document CHEMBL1201862, “PubChem BioAssay data set” (2004) can be followed below.

SMILES strings stand for the structures.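 Grown in 96-well plates, cells were treated for 48 hours with each compound at five concentrations. Insufficient inhibition: endpoint recorded as highest concentration tested. GI50 = concentration required for 50% inhibition of growth.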 The source made the active and inactive calls. Cut-off read from the data, not from the text of the source: active = GI50 up to about 1.1 µM and inactive = higher. Some results are limits rather than exact numbers.

For the compound `NS(=O)(=O)OCCCCCCCOS(N)(=O)=O`, the GI50 in experiment [1] is 144 µM (inactive); in [2] it was 151 µM (inactive); in experiment [3], 394 µM (inactive); in experiment [4], 272 µM (inactive); in [5], 300 µM (inactive); in experiment [6] it was 33 µM (inactive). The GI50 in experiment [7] is 142 µM (inactive); in experiment [8] it was 215 µM (inactive); in [9], 504 µM (inactive); in experiment [10] it was 347 µM (inactive); in [11], 379 µM (inactive); in experiment [12], 161 µM (inactive). The GI50 was 24.2 µM (inactive) in [13]; 23 µM (inactive) in experiment [14]; 259 µM (inactive) in experiment [15]; 273 µM (inactive) in experiment [16]; 409 µM (inactive) in experiment [17]; 138 µM (inactive) in experiment [18]. Moreover, the GI50 in experiment [19] was 364 µM (inactive); in [20], 265 µM (inactive).
Take `C=C1CC2(CCOc3ccc(Cl)cc32)OC1=O` (stereo not given): the GI50 was 2.15 µM (inactive) in experiment [1]; 0.352 µM (active) in [2]; 1.64 µM (inactive) in [3]; 3.42 µM (inactive) in experiment [4]; 22.5 µM (inactive) in experiment [5]; 1.93 µM (inactive) in [6]. Further, the GI50 in [7] was 5.35 µM (inactive); in experiment [8], 3.48 µM (inactive); in [9], 5.86 µM (inactive); in experiment [10], 2.55 µM (inactive); in [11], 13.7 µM (inactive); in experiment [12] it was 2.44 µM (inactive). Moreover, the GI50 in experiment [13] was 0.805 µM (active); in experiment [14], 3.61 µM (inactive); in experiment [15], 0.885 µM (active); in experiment [16], 6.47 µM (inactive); in [17] it was 1.91 µM (inactive); in [18] it was 0.284 µM (active). Also, the values for the GI50 in experiment [19] and in experiment [20] were 1.86 µM (inactive) and 2.83 µM (inactive), respectively.
For `Oc1ccc(SCc2ccc(NCc3ccccc3)cc2)cc1`, the GI50 was 0.869 µM (active) in experiment [1]; 31.8 µM (inactive) in [2]; 35.4 µM (inactive) in [3]; 19.4 µM (inactive) in [4]; 25.2 µM (inactive) in [5]; 14.6 µM (inactive) in experiment [6]. Also, the GI50 in experiment [7] is 46.6 µM (inactive); in experiment [8], 43.4 µM (inactive); in experiment [9], 20 µM (inactive); in [10], 31.5 µM (inactive); in [11] it was 29.2 µM (inactive); in experiment [12], 19.9 µM (inactive). Moreover, the GI50 in [13] is 11.4 µM (inactive); in experiment [14], 31 µM (inactive); in experiment [15], 20 µM (inactive); in [16], 30.3 µM (inactive); in experiment [17], 18.1 µM (inactive); in experiment [18], 36.6 µM (inactive). Further, the GI50 in experiment [19] is 21.7 µM (inactive); in experiment [20], 14.3 µM (inactive).
`CCCCCCCCCCCCCCNC(=O)CCC(NC(=O)c1ccc(N(C)Cc2cnc3nc(N)nc(N)c3n2)cc1)C(=O)NCCCCCCCCCCCCCC` (stereo not given): the GI50 was 1.28 µM (inactive) in experiment [1]; 12.3 µM (inactive) in experiment [2]; 11.8 µM (inactive) in experiment [3]; 23.9 µM (inactive) in [4]; 6.01 µM (inactive) in experiment [5]; 0.355 µM (active) in experiment [6]. In addition, the GI50 in experiment [7] is 9.29 µM (inactive); in experiment [8], 14.8 µM (inactive); in experiment [9] it was 4.13 µM (inactive); in [10], < 0.0185 µM (active); in [11] it was 2.45 µM (inactive); in experiment [12], 0.437 µM (active). The GI50 in experiment [13] was 0.982 µM (active); in [14], 0.363 µM (active); in experiment [15], 5.04 µM (inactive); in [16], 39.8 µM (inactive); in experiment [17], 12.5 µM (inactive); in experiment [18], 0.908 µM (active). Also, the GI50 was 31 µM (inactive) in experiment [19] and 13.8 µM (inactive) in [20].
For `NC1=NCCN1CC(=O)O` [CYCLOCREATINE], the GI50 was > 1000 µM (inactive) in [1]; > 1000 µM (inactive) in [2]; > 1000 µM (inactive) in experiment [3]; > 10000 µM (inactive) in experiment [4]; > 1000 µM (inactive) in [5]; > 1000 µM (inactive) in experiment [6]. Moreover, the GI50 is > 1000 µM (inactive) in experiment [7]; > 1000 µM (inactive) in [8]; > 1000 µM (inactive) in experiment [9]; > 1000 µM (inactive) in [10]; > 10000 µM (inactive) in [11]; > 1000 µM (inactive) in [12]. Also, the GI50 in [13] is > 1000 µM (inactive); in experiment [14], > 1000 µM (inactive); in experiment [15] it was > 10000 µM (inactive); in experiment [16] it was > 1000 µM (inactive); in experiment [17] it was > 1000 µM (inactive); in experiment [18], > 1000 µM (inactive). For the same compound, the GI50 in [19] and in experiment [20] was > 1000 µM (inactive) throughout.
